Test results published in US20250296942A1, “Phosphonate-Based Coordination Complexes and Methods of Preparation and Use Thereof” (University of Puerto Rico, priority 2021, published 2025).

Key:
[1] = test system: human osteoblast hFOB 1.19 cell line; experiment: AlamarBlue cytotoxicity, 2,2′-BPBPA series, hFOB 1.19; format: cell-based
Protocol: (§1) Cell culture methods. MCF-7 and MDA-MB-231 were incubated using DMEM at 37° C. in 5% CO2. The hFOB 1.19 cell lines were incubated with DMEM: F12 at 34° C. in 5% CO2.
(§2) Cell lines were supplemented using 10% FBS and 1% Pen-Strep. The media was replaced twice per week. Cell passages were carried out at 80% confluency.
(§3) Cell-based assays. Cell lines were seeded in 96 well plates at a density of 5x 10^3 cells/mL and incubated for 24 h before treatment. Cells were treated with 100 μL of 2,2′-BPBPA (0-400 μM), unloaded and loaded nano-Ca@2,2′-BPBPA (6.3-50 μM) for 24, 48, and 72 h.
(§4) Control groups were treated with media (DMEM or DMEM: F12) supplemented with 1% Pen-Strep. Cell viability was determined by employing AlamarBLue@. The media was replaced with 100 μL of 10% AlamarBlue® solution. After 24 h of incubation, the fluorescence was assessed at )max of 560 nm for excitation and 590 nm for emission.
(§5) Cell culture methods. MCF-7 and MDA-MB-231 were incubated using DMEM at 37° C. in 5% CO2. The hFOB 1.19 cell lines were incubated with DMEM: F12 at 34° C. in 5% CO2. Cell lines were supplemented using 10% FBS and 1% Pen-Strep. The media was replaced twice times per week. Cell passages were carried out at 80% confluency.
Seeding. […]
AlamarBlue@assay. […] Then, the fluorescence was assessed at 560 nm of excitation and λmax 590 nm of emission. […]

[2] = test system: human breast cancer MCF-7 cell line; experiment: AlamarBlue cytotoxicity, 2,2′-BPBPA series, MCF-7; format: cell-based
Protocol: as §1, §2, §3, §4, §5
Seeding. Cell lines were seeded in 96 well plates at a density of 5×10^3 cells/mL; cells were incubated for 24 h before each treatment.
Treatment. Cell lines were treated with 100 μL of 2,2′-BPBPA (0-400 μM), unloaded and loaded nano-Ca@2,2′-BPBPA (6.3-50 μM). Control groups were treated with media (DMEM or DMEM: F12) supplemented with 1% Pen-Strep. All cell-based assays were conducted for 24, 48, and 72 h of treatment. Experiments were performed in triplicate.
AlamarBlue@assay. To determine the cell viability, the media was removed and replaced with 100 μL of 10% AlamarBlue® solution. The 96 well plates were incubated for 4 h before the measurements. Then, the fluorescence was assessed at 560 nm of excitation and λmax 590 nm of emission. The IC50 curves for MCF-7, MDA-MB-231, and hFOB 1.19 cell lines treated with 2,2′-BPBPA are presented in FIGS. 211A-211C, 212A-212C, and 213A-213C.

Compound	% RCL ([1]; 6.3-50 μM, 24, 48, 72 h) [%]	% RCL ([2]; 6.3 μM, 24 h)	% RCL ([2]; 6.3 μM, 48 h) [%]	% RCL ([2]; 6.3 μM, 72 h) [%]	% RCL ([2]; 12.5 μM, 24 h) [%]	% RCL ([2]; 12.5 μM, 48 h) [%]	% RCL ([2]; 12.5 μM, 72 h) [%]	% RCL ([2]; 25 μM, 24 h) [%]	% RCL ([2]; 25 μM, 72 h) [%]	% RCL ([2]; 50 μM, 24 h) [%]	% RCL ([2]; 50 μM, 72 h) [%]	IC50 ([1]; Homo sapiens, Osteoblast, 72 h) [µM]	IC50 ([2]; Homo sapiens, MCF7, 72 h) [µM]
N#Cc1ccc(C(c2ccc(C#N)cc2)n2cncn2)cc1 [LET, letrozole]	~99	about 100±2%	~79 ±1	~74±3	100±2	71±3	68±2	100±1	46±2	99±1	40±1		
O=P(O)(O)c1ccc(-c2ccc(P(=O)(O)O)cn2)nc1 [2,2′-BPBPA, 2,2′-bipyridine-5,5′-bisphosphonic acid]												> 188	134 ± 2
